Laboratory results taken from USRE50663E1, “Heterocycle derivatives as pesticides” (Bayer Aktiengesellschaft, priority 2017, dated 2025).

Legend:
[1] = system: green peach aphid (Myzus persicae); assay: Myzus persicae spray test; format: in vivo; details: foliar, 120 h, 100 g/ha, after 5 days, Chinese cabbage leaf discs, read-out: efficacy
Description: Solvent: 78 parts by weight of acetone • • 1.5 parts by weight of dimethylformamide
(§1) Emulsifier: alkylaryl polyglycol ether
(§2) To produce a suitable active compound formulation, 1 part by weight of active compound is dissolved with the specified parts by weight of solvent and made up to the desired concentration with water containing an emulsifier concentration of 1000 ppm. To produce further test concentrations, the formulation is diluted with emulsifier-containing water.
Discs of Chinese cabbage leaves (Brassica pekinensis) infested by all stages of the green peach aphid (Myzus persicae) are sprayed with an active compound formulation of the desired concentration.
(§3) After 5 days, the efficacy in % is determined. 100% means that all the aphids have been killed; 0% means that no aphids have been killed.

[2] = system: caterpillars of the fall armyworm (Spodoptera frugiperda); assay: Spodoptera frugiperda spray test; format: in vivo; details: foliar, 168 h, 100 g/ha, after 7 days, maize leaf discs, read-out: efficacy
Description: (§4) Solvent: 78.0 parts by weight of acetone • • 1.5 parts by weight of dimethylformamide
as §1, §2
Leaf discs of maize (Zea mays) are sprayed with an active compound formulation of the desired concentration and, after drying, populated with caterpillars of the fall armyworm (Spodoptera frugiperda).
After 7 days, the efficacy in % is determined. 100% means that all the caterpillars have been killed; 0% means that no caterpillar has been killed.

[3] = system: adult houseflies (Musca domestica); assay: Musca domestica test; format: in vivo; details: after 2 days
Description: (§5) Solvent: dimethyl sulfoxide
(§6) To produce a suitable active compound formulation, 10 mg of active compound are mixed with 0.5 ml of dimethyl sulfoxide, and the concentrate is diluted with water to the desired concentration.
Vessels containing a sponge treated with sugar solution and the desired concentration of active compound formulation are populated with 10 adult houseflies (Musca domestica).
After 2 days, the kill in % is determined. 100% means that all of the flies have been killed; 0% means that none of the flies have been killed.

[4] = system: adult cat fleas (Ctenocephalides felis); assay: Ctenocephalides felis oral test; format: in vivo; details: 48 h, 100 ppm in citrated cattle blood, after 2 days, read-out: efficacy (kill)
Description: as §5
To produce a suitable active compound formulation, 10 mg of active compound are mixed with 0.5 ml of dimethyl sulfoxide. Dilution with citrated cattle blood gives the desired concentration.
About 20 unfed adult cat fleas (Ctenocephalides felis) are placed into a chamber which is closed at the top and bottom with gauze. A metal cylinder whose bottom end is closed with parafilm is placed onto the chamber. The cylinder contains the blood/active compound formulation, which can be imbibed by the fleas through the parafilm membrane.
After 2 days, the kill in % is determined. 100% means that all of the fleas have been killed; 0% means that none of the fleas have been killed.

[5] = system: larvae of the mustard beetle (Phaedon cochleariae); assay: Phaedon cochleariae spray test; format: in vivo; details: foliar, 168 h, 100 g/ha, after 7 days, Chinese cabbage leaf discs, read-out: efficacy
Description: as §4, §1, §2
Discs of Chinese cabbage leaves (Brassica pekinensis) are sprayed with an active compound formulation of the desired concentration and, after drying, populated with larvae of the mustard beetle (Phaedon cochleariae).
After 7 days, the efficacy in % is determined. 100% means that all the beetle larvae have been killed; 0% means that no beetle larvae have been killed.

[6] = system: green peach aphids (Myzus persicae); assay: Myzus persicae oral test; format: in vivo; details: 120 h, 4 ppm, after 5 days, read-out: efficacy
Description: Solvent: 100 parts by weight of acetone
To produce a suitable active compound formulation, 1 part by weight of active compound is dissolved with the stated parts by weight of solvent and made up to the desired concentration with water.
50 μl of the active compound formulation are transferred into microtitre plates and made up to a final volume of 200 μl with 150 μl of IPL41 insect medium (33%+15% sugar). Subsequently, the plates are sealed with parafilm, which a mixed population of green peach aphids (Myzus persicae) within a second microtitre plate is able to puncture and imbibe the solution.
as §3

[7] = system: adult cat fleas (Ctenocephalides felis); assay: Ctenocephalides felis in vitro contact test with adult cat fleas; format: in vivo; details: application rate 5 μg/cm^2 (=500 g/ha), after 48 h, dead or moribund fleas
Description: For the coating of the test tubes, 9 mg of active compound are first dissolved in 1 ml of acetone p.a. and then diluted to the desired concentration with acetone p.a. 250 μl of the solution are distributed homogeneously on the inner walls and the base of a 25 ml glass tube by turning and rocking on an orbital shaker (rocking rotation at 30 rpm for 2 h). With 900 ppm of active compound solution and internal surface area 44.7 cm^2, given homogeneous distribution, an area-based dose of 5 μg/cm^2 is achieved.
After the solvent has evaporated off, the tubes are populated with 5-10 adult cat fleas (Ctenocephalides felis), sealed with a perforated plastic lid and incubated in a horizontal position at room temperature and ambient humidity. After 48 h, efficacy is determined. To this end, the tubes are stood upright and the fleas are knocked to the base of the tube. Fleas which remain motionless at the base or move in an uncoordinated manner are considered to be dead or moribund.
100% efficacy means that all the fleas were dead or moribund. 0% efficacy means that no fleas were harmed.

[8] = system: L1 larvae of the Australian sheep blowfly (Lucilia cuprina); assay: Lucilia cuprina test; format: in vivo; details: 48 h, 100 ppm, after 2 days, read-out: efficacy (kill)
Description: as §5, §6
About 20 L1 larvae of the Australian sheep blowfly (Lucilia cuprina) are transferred into a test vessel containing minced horsemeat and the active compound formulation of the desired concentration.
After 2 days, the kill in % is determined. 100% means that all the larvae have been killed; 0% means that no larvae have been killed.

[9] = logP by HPLC on reversed-phase column (C18), acidic range; format: physicochemical; details: reversed-phase HPLC column (C18), formic acid in water/acetonitrile
Description: The logP values were determined according to EEC Directive 79/831 Annex V.A8 by HPLC (high-performance liquid chromatography) on a reversed-phase column (C18) using the following methods:
Calibration was carried out using a homologous series of straight-chain alkan-2-ones (having 3 to 16 carbon atoms) with known logP values. The values between successive alkanones are determined by linear regression.

[10] = system: southern root-knot nematode (Meloidogyne incognita); assay: Meloidogyne incognita test; format: in vivo; details: 20 ppm, after 14 days, lettuce
Description: Solvent: 125.0 parts by weight of acetone
To produce a suitable active compound formulation, 1 part by weight of active compound is mixed with the stated amount of solvent and the concentrate is diluted to the desired concentration with water.
Vessels are filled with sand, active compound solution, an egg/larvae suspension of the southern root-knot nematode (Meloidogyne incognita) and lettuce seeds. The lettuce seeds germinate and the plants develop. The galls develop on the roots.
After 14 days, the nematicidal efficacy in % is determined by the formation of galls. 100% means that no galls were found; 0% means that the number of galls on the treated plants corresponds to the untreated control.

[11] = system: engorged adult female cattle ticks (Boophilus microplus); assay: Boophilus microplus injection test; format: in vivo; details: 20 μg/animal, injection into abdomen
Description: as §5
To produce a suitable active compound formulation, 10 mg of active compound are mixed with 0.5 ml of solvent and the concentrate is diluted to the desired concentration with solvent.
1 μl of the active compound solution is injected into the abdomen of 5 engorged adult female cattle ticks (Boophilus microplus). The animals are transferred into dishes and kept in a climate-controlled room.
The activity is assessed after the desired time by laying of fertile eggs. Eggs which are not visibly fertile are stored in a climate-controlled cabinet until the larvae hatch after about 42 days. An efficacy of 100% means that none of the ticks has laid any fertile eggs; 0% means that all the eggs are fertile.

SMILES | pest or weed control at 100 g/ha [1] [%] | pest or weed control at 100 g/ha [2] [%] | efficacy (kill) ([3]; 100 ppm) [%] | pest or weed control at 100 ppm [4] [%] | pest or weed control at 100 g/ha [5] [%] | pest or weed control at 4 ppm [6] [%] | efficacy [7] [%] | pest or weed control at 100 ppm [8] [%] | chromatographic logP [9] | nematicidal efficacy (formation of galls) [10] [%] | efficacy (kill) ([3]; 20 ppm) [%] | efficacy (no laying of fertile eggs) [11] [%]
CCS(=O)(=O)c1c(-c2nc3cc(SC(F)(F)F)cnc3n2C)nc2cc(S(=O)(=O)C3CC3)ccn12 [Example I-12] | 100 | 100 | 100 | 100 | 100 | 100 | – | – | – | – | – | –
CCS(=O)(=O)c1c(-c2nc3cc(C(F)(F)F)cnc3n2C)nc2cc(NS(=O)(=O)NC3CC3)ccn12 [Example I-07, N-Cyclopropyl-N′-{3-(ethylsulfonyl)-2-[3-methyl-6-(trifluoromethyl)-3H-imidazo[4,5-b]pyridin-2-yl]imidazo[1,2-a]pyridin-7-yl}sulfurdiamide] | – | – | 80 | 100 | – | 100 | 100 | 100 | 2.55 | – | – | –
CCS(=O)(=O)c1c(-c2nc3cc(C(F)(F)F)cnc3n2C)nc2cc(NC(=S)NC3CC3)ccn12 [Example I-05, 1-Cyclopropyl-3-{3-(ethylsulfonyl)-2-[3-methyl-6-(trifluoromethyl)-3H-imidazo[4,5-b]pyridin-2-yl]imidazo [1,2-a]pyridin-7-yl}thiourea] | 90 | 100 | 100 | 100 | 100 | 100 | – | 100 | 2.71 | 90 | – | –
CCS(=O)(=O)c1c(-c2nc3cc(C(F)(F)F)cnc3n2C)nc2cc(S(=O)(=O)C3CC3)ccn12 [Example I-09, 2-[7-(Cyclopropylsulfonyl)-3-(ethylsulfonyl)imidazo[1,2-a]pyridin-2-yl]-3-methyl-6-(trifluoromethyl)-3H-imidazo[4,5-b]pyridine] | 90 | 100 | – | 100 | 100 | 100 | 100 | 100 | 2.89 | – | 80 | –
CCS(=O)(=O)c1c(-c2nc3cc(C(F)(F)F)cnc3n2C)nc2cc(NC(=O)C3CC3)ccn12 [Example I-01] | 90 | 100 | 80 | 100 | 100 | 100 | 100 | 100 | – | – | – | –
CCS(=O)(=O)c1c(-c2nc3cc(C(F)(F)F)cnc3n2C)nc2cc(C(=O)C3CC3)ccn12 [Example I-20] | – | 100 | – | – | 100 | – | – | – | – | – | – | 80
CCS(=O)(=O)c1c(-c2nc3cc(C(F)(F)F)cnc3n2C)nc2cc(C(F)(F)C3CC3)ccn12 [Example I-21] | – | 100 | – | 100 | 100 | – | – | – | – | – | – | 90
